Test results: patent US20240109885A1, “2,3-DIHYDRO-1H-PYRROLO[3,2-B]PYRIDINE DERIVATIVE, PREPARATION METHOD THEREFOR, AND APPLICATION THEREOF” (Abbisko Therapeutics Co., Ltd, priority 2020, published 2024)

Tests used:
Format in all cases: cell-based
[1] = molecular target: Ba/F3 EGFR-V769_D770insASV (Homo sapiens, UniProt P00533, DUP767-769, cells depend on it); experiment: Cell proliferation assay (CellTiter-Glo), Ba/F3 EGFR-V769_D770insASV cells; conditions: 72 hrs, CTG assay, * = average of multiple measurements, read-out: Ba/F3 EGFR-V769_D770insASV (nM), IC50 of cell proliferation
Sequence of Ba/F3 EGFR-V769_D770insASV (P00533 with tags, fused parts or gaps DUP767-769): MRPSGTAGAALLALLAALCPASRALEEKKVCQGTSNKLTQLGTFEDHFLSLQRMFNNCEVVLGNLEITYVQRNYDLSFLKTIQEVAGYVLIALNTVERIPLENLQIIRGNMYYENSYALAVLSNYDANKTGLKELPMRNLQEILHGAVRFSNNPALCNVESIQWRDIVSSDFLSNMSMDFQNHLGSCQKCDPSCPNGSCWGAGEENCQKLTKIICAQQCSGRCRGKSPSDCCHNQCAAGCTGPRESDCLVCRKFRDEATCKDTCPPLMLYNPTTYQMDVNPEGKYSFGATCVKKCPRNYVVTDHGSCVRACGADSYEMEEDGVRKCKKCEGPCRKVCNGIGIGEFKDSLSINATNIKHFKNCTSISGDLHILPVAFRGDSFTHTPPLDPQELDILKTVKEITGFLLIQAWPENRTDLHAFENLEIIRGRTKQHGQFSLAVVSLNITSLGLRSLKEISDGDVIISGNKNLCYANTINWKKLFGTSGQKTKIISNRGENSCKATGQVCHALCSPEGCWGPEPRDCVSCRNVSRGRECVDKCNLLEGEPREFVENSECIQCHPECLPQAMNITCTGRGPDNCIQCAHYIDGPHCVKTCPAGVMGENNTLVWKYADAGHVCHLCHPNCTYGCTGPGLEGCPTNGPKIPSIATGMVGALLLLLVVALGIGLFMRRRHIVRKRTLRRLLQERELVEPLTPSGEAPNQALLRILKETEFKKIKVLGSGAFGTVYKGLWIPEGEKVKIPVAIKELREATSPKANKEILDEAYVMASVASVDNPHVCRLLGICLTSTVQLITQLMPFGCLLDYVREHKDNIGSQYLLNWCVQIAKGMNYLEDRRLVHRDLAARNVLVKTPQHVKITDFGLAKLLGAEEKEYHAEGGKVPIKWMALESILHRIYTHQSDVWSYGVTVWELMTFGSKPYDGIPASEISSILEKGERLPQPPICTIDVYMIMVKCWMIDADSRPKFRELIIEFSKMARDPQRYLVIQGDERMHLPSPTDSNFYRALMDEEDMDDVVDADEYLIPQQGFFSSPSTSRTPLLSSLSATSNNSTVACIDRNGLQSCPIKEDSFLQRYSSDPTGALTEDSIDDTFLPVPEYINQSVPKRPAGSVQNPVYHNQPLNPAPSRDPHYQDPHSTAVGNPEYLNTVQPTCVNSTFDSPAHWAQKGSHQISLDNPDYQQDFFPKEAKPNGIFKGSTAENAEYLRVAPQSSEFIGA
Summary of the method: (§1)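 Cells seeded overnight, then treated in triplicate with 9 concentrations (3.16-fold dilutions; 0.1% DMSO final) for 72 h at 37 °C, 5% CO2. Viability by CellTiter-Glo luminescence, normalised to cell and medium controls; IC50 (nM) from nonlinear sigmoidal fit.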

[2] = molecular target: Ba/F3 EGFR-D770-N771ins_SVD (Homo sapiens, UniProt P00533, DUP768-770, cells depend on it); experiment: Cell proliferation assay (CellTiter-Glo), Ba/F3 EGFR-D770-N771ins_SVD cells; conditions: 72 hrs, CTG assay, * = average of multiple measurements, read-out: Ba/F3 EGFR-D770-N771ins_SVD (nM), IC50 of cell proliferation
Sequence of Ba/F3 EGFR-D770-N771ins_SVD (P00533 with tags, fused parts or gaps DUP768-770): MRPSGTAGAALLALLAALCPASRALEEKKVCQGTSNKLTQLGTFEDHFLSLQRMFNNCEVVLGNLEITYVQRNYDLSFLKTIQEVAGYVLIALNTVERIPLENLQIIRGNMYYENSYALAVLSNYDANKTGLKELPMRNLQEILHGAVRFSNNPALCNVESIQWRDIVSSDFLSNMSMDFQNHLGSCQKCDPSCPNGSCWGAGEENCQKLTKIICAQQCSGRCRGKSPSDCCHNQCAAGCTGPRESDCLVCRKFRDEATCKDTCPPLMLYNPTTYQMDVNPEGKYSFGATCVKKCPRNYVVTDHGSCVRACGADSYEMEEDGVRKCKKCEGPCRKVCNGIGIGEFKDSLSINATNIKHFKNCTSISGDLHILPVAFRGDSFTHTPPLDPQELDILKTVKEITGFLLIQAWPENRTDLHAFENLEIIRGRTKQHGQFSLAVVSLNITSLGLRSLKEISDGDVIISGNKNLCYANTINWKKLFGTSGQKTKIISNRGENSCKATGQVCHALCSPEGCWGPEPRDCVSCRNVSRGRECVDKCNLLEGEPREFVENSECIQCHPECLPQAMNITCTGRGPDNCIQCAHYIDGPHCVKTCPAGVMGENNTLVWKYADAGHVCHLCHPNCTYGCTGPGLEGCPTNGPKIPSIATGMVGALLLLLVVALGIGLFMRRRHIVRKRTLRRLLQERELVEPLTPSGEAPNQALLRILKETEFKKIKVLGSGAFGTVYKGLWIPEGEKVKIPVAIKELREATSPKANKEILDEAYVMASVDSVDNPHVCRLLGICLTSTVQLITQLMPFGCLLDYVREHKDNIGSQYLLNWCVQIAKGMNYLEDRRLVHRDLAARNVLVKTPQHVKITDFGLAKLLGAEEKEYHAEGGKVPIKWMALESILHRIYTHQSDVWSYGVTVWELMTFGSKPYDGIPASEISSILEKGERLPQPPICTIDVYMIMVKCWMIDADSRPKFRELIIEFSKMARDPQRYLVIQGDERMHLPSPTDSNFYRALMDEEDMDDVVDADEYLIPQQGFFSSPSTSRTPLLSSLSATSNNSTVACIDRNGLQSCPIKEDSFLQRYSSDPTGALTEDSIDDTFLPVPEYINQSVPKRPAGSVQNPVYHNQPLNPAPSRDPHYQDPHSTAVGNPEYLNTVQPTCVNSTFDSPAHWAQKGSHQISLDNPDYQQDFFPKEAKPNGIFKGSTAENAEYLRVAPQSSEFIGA
Summary of the method: as §1

[3] = test system: A431 (EGFR-WT); experiment: Cell proliferation assay (CellTiter-Glo), A431 cells; conditions: Homo sapiens, A-431, 72 hrs, CTG assay, * = average of multiple measurements
Summary of the method: as §1

SMILES: C=CC(=O)Nc1cc(Nc2ncnc(N3CC4(CCCCC4)c4nc(C)ccc43)n2)c(OC)cc1N(C)CCN(C)C [Example 31, N-(2-((2-(dimethylamino)ethyl) (methyl)amino)-4-methoxy-5-((4-(5′-methylspiro[cyclohexane-1,3′-pyrrolo[3,2-b]pyridin]-1′(2′H)-yl)-1,3,5-triazin-2-yl)amino)phenyl)acrylamide]
- GI50 [1]: 33 nM
- GI50 [2]: 13 nM
- IC50 [3]: 11.1 nM
